The numbers were not newly measured in article PMC9474474, “Determination of pharmacokinetics and tissue distribution of a novel lutetium-labeled PSMA-targeted ligand, ^177Lu-DOTA-PSMA-GUL, in rats by using LC–MS/MS” (Scientific Reports, 2022), which cites them from elsewhere.

Details of the data set: method as in PMID 26985056. The conditions noted are these: cited from earlier work.

Turning to `O=C([O-])CN1CCN(CC(=O)[O-])CCN(CC(=O)NCC2CCC(C(=O)N[C@@H](Cc3ccc4ccccc4c3)C(=O)NCCCC[C@H](NC(=O)N[C@@H](CCC(=O)O)C(=O)O)C(=O)O)CC2)CCN(CC(=O)[O-])CC1.[177Lu+3]` (some centres unmarked) [^177Lu-PSMA-617], the elimination half-life (humans, radioactivity study) is 90 h. For the same compound, the eliminated by urine result (patients with PSMA-positive tumor phenotype) is recorded as “approximately 50%”.
